# Test results: patent publication US9242993B2, “Morpholino substituted bicyclic pyrimidine urea or carbamate derivatives as mTOR inhibitors” (CELLZOME LIMITED, priority 2011, dated 2016)
# How the values were obtained:
# [1] = tested on: S6RP serine-240/244 phosphorylation; assay: In vitro phospho-S6 cellular assay; type: cell-based; details: Homo sapiens; HEK293T/17 cells, 2 hours; read-out: pS6 inhibition value (IC50), activity level
# Source text: Activation of mTOR signaling results in phosphorylation of several downstream targets. In cells, mTOR exists in two different protein complexes. The mTOR Complex-1 (mTORC1) phosphorylates and activates S6 Kinase 1 (S6K1) and S6 Kinase 2 (S6K2) (also known as p70S6K) which then phosphorylate S6 Ribosomal Protein (S6RP) (also known as RPS6)3. S6RP is phosphorylated on serine 235, serine 236, serine 240 and serine 244 by both pS6K1 and pS6K2. The mTOR Complex-2 (mTORC2) phosphorylates AKT on serine 473 which activates the AKT signaling pathway.
# The assay measures a test compound's inhibition of S6RP serine-240/244 phosphorylation and inhibition of Akt serine-473 phosphorylation in human embryonic kidney derived HEK293T/17 cells (ATCC CRL-11268).
# The HEK293T/17 cell line is maintained in DMEM media (Invitrogen catalogue number 41965-039) supplemented with 10% FCS at 37° C. in a 5% CO2 humidified incubator.
# Cells are seeded in 96-well plates at 40,000 cells/well (pS6RP S240/244 assay) or 80,000 cells/well (pAkt S473 assay) in 90 μl growth media (DMEM, 2% FCS). Plates are incubated for 1 hour in a humidified incubator to allow the cells to adhere. Cells are treated with 8 concentrations of test compounds or DMSO alone for controls (final DMSO concentration 0.1%) and incubated at 37° C. for 2 hours. Then 20 μl of 5× concentrated lysis buffer (750 mM NaCl, 100 mM Tris pH7.4, 5 mM ADTA, 5 mM EGTA, 5% Triton X-100) is added, plates are sealed and incubated for 15 minutes at 4° C. with gentle shaking. After cell lysis, 25 μl cell lysate is transferred to a MesoScale plate coated with an antibody to pS6RP Ser240/244 (MesoScale Discovery K150DGD-3) or an antibody to pAkt Ser 473 (MesoScale Discovery K151DGD-3). Plates have been blocked before by incubation with 150 μl MesoScale Discovery Blocking Solution-A for 1 hour at room temperature followed by washing with 150 μl 1× Tris wash buffer per well. After the transfer of the cell lysate to the MSD plate, the pS6RP (or pAkt) protein is captured on the coated antibody by incubation at room temperature for 1 hour with gentle shaking. After the capture step the plate is washed three times with 150 μl of 1× Tris wash buffer per well. Then 25 μl detection antibody conjugated with a Sulfo-Tag is added and incubated for 1 hour at room temperature with gentle shaking. Subsequently the antibody solution is removed and the plate is washed 3 times with 150 μl 1× Tris wash buffer per well and 150 μl Read buffer is added. The plates are analysed on a MSD 2400 Plate Reader (MesoScale Discovery). Data analysis is performed using nonlinear regression for a sigmoidal dose-response with a variable slope.
# [2] = tested on: IFNγ release in whole blood; assay: In vitro human whole blood assay (IFNγ release); type: cell-based; details: αCD3/αCD28 and IL-2 stimulation, 18 hours, read-out: WB inhibition value (pIC50) (converted)
# Experimental: This assay measures IFNγ release in whole blood after αCD3/αCD28 and IL-2 treatment. The whole blood contains circulating T lymphocytes; αCD3/αCD28 stimulation mimics antigen receptor signalling, resulting in epigenetic changes to the IFNG gene locus, such that when IL-2 is added, IFNγ is produced.
# Human whole blood, with Na-heparin as the anticoagulant, is obtained from Clinical Trials Laboratory Services. Blood is diluted 1.4 times with RPMI 1640 (Lonza, BE12-167F) and 175 μl/well is distributed in a low evaporation 96-well plates (Falcon, BD Labware, 353072). Blood is treated with 10 concentrations of test compounds or DMSO alone for controls (final DMSO concentration 0.2%) and incubated at 37° C. for 1 hour. Blood is then stimulated with 1 μg/ml αCD3 (R&D Systems, MAB100), 1 μg/ml αCD28 (BD Pharmingen, 555725) and IL-2 at 10 ng/ml (Peprotech, 200-02). Blood is then left to incubate at 37° C. for 18 hours. After, plates are spun at 250 g for 5 minutes to pellet blood cells and 25 μl of plasma is transferred to a MesoScale plate coated with an antibody to IFNγ (MesoScale Discovery K151AEC-2) containing 25 μl/well MesoScale Discovery Blocking Solution-2. Plates have been blocked by incubating with 25 μl/well MesoScale Discovery Blocking Solution-2 for 30 minutes at room temperature. After the transfer of sera to the MSD plate, the IFNγ protein is captured on the coated antibody by incubation at room temperature for 2 hour with gentle shaking. After the capture step the plate is washed three times with 150 μl/well of 1×PBS-Tween wash buffer and 25 μl/well detection antibody conjugated with a Sulfo-Tag is added and incubated for 2 hours at room temperature with gentle shaking. Subsequently the antibody solution is removed and the plate is washed 3 times with 150 μl/well 1×PBS-Tween wash buffer and 150 μl/well MesoScale Discovery Read buffer is added. The plates are analysed on a MSD 2400 Plate Reader (MesoScale Discovery). Data analysis is performed using nonlinear regression for a sigmoidal dose-response with a variable slope.
# mTOR = mTOR (Homo sapiens, UniProt P42345); assay: biochemical
# [3] = target: DNA-dependent protein kinase (DNA-PK) (Homo sapiens, UniProt P78527); assay: biochemical
# Sequence of DNA-dependent protein kinase (DNA-PK) (P78527 whole entry): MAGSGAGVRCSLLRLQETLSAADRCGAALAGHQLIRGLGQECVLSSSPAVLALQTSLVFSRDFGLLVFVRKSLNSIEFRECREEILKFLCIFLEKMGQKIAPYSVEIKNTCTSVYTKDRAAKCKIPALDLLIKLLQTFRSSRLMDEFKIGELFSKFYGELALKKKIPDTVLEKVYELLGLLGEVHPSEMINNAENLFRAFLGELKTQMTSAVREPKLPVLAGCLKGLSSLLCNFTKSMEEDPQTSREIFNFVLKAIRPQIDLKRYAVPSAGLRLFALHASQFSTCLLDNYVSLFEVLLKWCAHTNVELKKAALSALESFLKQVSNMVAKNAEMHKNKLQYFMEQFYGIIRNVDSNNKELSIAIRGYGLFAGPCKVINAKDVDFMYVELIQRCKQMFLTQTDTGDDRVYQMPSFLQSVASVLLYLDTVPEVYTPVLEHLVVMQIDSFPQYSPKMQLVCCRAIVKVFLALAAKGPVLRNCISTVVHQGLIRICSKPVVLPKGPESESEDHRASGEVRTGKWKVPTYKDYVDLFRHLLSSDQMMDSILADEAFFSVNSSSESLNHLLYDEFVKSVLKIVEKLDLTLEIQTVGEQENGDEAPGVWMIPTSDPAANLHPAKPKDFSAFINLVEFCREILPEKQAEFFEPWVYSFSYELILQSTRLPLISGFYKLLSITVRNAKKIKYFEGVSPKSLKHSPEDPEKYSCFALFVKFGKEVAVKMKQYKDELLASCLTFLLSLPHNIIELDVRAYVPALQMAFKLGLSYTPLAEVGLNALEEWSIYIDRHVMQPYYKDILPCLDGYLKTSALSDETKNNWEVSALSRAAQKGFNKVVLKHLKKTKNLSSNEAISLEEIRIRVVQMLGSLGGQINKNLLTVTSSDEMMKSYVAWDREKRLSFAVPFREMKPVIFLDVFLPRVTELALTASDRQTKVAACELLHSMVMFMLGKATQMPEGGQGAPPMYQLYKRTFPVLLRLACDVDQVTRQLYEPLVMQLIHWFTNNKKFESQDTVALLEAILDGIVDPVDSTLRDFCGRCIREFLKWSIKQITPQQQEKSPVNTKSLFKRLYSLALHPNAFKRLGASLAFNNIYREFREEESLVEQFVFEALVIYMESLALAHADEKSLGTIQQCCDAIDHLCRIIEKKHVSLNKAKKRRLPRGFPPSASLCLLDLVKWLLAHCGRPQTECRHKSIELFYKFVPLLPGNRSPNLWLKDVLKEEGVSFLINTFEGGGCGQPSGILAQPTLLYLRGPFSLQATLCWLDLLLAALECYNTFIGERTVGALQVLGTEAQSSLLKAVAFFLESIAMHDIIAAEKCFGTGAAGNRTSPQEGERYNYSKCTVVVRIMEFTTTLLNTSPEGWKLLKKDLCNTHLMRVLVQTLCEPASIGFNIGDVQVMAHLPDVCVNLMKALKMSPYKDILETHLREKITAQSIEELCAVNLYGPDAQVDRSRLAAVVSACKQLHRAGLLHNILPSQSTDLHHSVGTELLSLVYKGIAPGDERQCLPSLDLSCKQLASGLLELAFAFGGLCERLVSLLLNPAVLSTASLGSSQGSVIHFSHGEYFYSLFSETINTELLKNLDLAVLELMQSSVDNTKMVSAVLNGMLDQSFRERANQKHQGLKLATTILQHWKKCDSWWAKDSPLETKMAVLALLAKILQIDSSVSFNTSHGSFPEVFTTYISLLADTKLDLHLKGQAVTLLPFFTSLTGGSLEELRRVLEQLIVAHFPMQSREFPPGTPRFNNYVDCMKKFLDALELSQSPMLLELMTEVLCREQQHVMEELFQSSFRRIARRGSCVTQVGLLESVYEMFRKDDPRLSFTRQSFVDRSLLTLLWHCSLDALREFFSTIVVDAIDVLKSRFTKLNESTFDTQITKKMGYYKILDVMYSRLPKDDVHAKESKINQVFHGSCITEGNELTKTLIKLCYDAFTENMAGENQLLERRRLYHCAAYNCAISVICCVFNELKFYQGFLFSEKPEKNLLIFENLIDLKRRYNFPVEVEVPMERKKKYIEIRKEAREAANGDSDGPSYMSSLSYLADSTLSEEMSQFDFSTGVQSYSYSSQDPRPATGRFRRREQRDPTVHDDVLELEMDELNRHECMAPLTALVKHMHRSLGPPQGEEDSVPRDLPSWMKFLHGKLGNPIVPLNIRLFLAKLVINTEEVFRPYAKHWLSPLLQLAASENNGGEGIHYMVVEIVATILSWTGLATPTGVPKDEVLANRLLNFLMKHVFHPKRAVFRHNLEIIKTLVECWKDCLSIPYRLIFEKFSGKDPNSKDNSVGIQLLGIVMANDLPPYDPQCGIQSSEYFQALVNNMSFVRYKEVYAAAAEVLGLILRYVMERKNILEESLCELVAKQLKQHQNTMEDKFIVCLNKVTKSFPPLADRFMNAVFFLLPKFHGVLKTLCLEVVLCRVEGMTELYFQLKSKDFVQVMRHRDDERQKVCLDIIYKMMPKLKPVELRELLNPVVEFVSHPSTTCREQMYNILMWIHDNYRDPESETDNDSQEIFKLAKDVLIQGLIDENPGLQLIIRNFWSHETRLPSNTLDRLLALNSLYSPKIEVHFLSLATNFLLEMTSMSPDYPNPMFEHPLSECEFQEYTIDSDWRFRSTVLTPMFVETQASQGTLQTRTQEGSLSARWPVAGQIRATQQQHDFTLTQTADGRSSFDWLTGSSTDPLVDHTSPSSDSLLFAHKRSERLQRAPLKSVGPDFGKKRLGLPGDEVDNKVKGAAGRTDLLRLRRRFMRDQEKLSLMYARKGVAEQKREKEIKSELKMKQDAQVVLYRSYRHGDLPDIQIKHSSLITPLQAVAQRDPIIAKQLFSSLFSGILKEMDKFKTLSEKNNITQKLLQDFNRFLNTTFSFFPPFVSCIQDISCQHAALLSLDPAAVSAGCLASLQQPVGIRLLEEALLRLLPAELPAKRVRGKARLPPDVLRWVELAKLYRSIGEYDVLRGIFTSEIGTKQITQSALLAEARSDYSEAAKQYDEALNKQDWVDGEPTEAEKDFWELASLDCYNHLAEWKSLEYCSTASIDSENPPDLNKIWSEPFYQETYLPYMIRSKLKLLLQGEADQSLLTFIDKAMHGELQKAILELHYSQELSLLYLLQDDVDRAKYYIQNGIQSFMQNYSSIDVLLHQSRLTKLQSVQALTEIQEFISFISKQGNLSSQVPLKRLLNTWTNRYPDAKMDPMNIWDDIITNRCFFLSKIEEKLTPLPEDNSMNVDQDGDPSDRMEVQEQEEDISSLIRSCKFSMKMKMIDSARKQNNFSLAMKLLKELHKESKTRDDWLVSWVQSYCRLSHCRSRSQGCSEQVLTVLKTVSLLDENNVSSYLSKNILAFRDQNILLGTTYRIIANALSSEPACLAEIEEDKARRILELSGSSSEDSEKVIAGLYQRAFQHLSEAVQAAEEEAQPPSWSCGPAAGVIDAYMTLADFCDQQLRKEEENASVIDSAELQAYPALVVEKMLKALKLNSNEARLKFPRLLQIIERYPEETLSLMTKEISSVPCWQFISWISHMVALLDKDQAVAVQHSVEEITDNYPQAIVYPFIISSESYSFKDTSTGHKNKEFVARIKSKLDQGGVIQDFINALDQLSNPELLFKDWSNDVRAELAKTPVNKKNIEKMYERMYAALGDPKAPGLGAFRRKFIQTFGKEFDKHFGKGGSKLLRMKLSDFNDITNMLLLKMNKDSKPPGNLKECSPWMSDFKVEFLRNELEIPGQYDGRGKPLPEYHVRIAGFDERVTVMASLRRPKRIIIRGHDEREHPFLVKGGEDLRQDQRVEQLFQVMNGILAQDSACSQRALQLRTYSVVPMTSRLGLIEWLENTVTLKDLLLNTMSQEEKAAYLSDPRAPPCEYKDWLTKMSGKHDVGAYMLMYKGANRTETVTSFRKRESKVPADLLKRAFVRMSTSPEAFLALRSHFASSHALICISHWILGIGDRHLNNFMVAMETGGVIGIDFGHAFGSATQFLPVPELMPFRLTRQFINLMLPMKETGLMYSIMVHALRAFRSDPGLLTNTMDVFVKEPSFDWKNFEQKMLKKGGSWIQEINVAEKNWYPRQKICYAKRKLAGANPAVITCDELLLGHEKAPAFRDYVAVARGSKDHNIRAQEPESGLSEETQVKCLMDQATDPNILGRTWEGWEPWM
SMILES,IC50 [1],IC50 [2],IC50 (mTOR),IC50 [3]
"CCNC(=O)Nc1ccc(-c2nc3c(c(N4CCOC[C@@H]4C)n2)C(CC)S(=O)(=O)C3)cc1 (stereo partly drawn) [Example 67, 1-ethyl-3-(4-(5-ethyl-4-((S)-3-methylmorpholino)-6,6-dioxido-5,7-dihydrothieno[3,4-d]pyrimidin-2-yl)phenyl)urea]",< 100 nM,316 nM,< 100 nM,> 10000 nM
"C[C@H]1COCCN1c1nc(-c2ccc(NC(=O)NC3CC3)cc2)nc2c1CS(=O)(=O)C2(C)F (stereo partly drawn) [Example 43, 1-cyclopropyl-3-(4-(7-fluoro-7-methyl-4-((S)-3-methylmorpholino)-6,6-dioxido-5,7-dihydrothieno[3,4-d]pyrimidin-2-yl)phenyl)urea]",< 100 nM,1000 nM,< 100 nM,> 10000 nM
"CCNC(=O)Nc1ccc(-c2nc(N3CCOC[C@H]3C)c3c(n2)C(C)(C)S(=O)(=O)C3)cc1 [Example 55, (R)-1-(4-(7,7-dimethyl-4-(3-methylmorpholino)-6,6-dioxido-5,7-dihydrothieno[3,4-d]pyrimidin-2-yl)phenyl)-3-ethylurea]",< 100 nM,100 nM,,> 10000 nM
"CCNC(=O)Nc1ccc(-c2nc(N3CCOC[C@@H]3C)c3c(n2)C(C)(C)S(=O)(=O)C3C)cc1 (stereo partly drawn) [Example 42, 1-ethyl-3-(4-(5,7,7-trimethyl-4-((S)-3-methylmorpholino)-6,6-dioxido-5,7-dihydrothieno[3,4-d]pyrimidin-2-yl)phenyl)urea]",< 100 nM,251 nM,< 100 nM,
"C[C@@H]1COCCN1c1nc(-c2ccc(NC(=O)NC3CC3)cc2)nc2c1CS(=O)(=O)C2(C)C [Example 54, (R)-1-cyclopropyl-3-(4-(7,7-dimethyl-4-(3-methylmorpholino)-6,6-dioxido-5,7-dihydrothieno[3,4-d]pyrimidin-2-yl)phenyl)urea]",< 100 nM,200 nM,< 100 nM,
"CC1c2c(N3CCOC[C@@H]3C)nc(-c3ccc(NC(=O)NCCF)cc3)nc2C(C)(C)S1(=O)=O (stereo partly drawn) [Example 75, 1-(2-fluoroethyl)-3-(4-(5,7,7-trimethyl-4-((S)-3-methylmorpholino)-6,6-dioxido-5,7-dihydrothieno[3,4-d]pyrimidin-2-yl)phenyl)urea]",< 100 nM,126 nM,< 100 nM,
"CC[C@H]1COCCN1c1nc(-c2ccc(NC(=O)NC)cc2)nc2c1C(C)S(=O)(=O)C2(C)C (stereo partly drawn) [Example 80, 1-(4-(4-((S)-3-ethylmorpholino)-5,7,7-trimethyl-6,6-dioxido-5,7-dihydrothieno[3,4-d]pyrimidin-2-yl)phenyl)-3-methylurea]",< 100 nM,100 nM,< 100 nM,
"CCNC(=O)Nc1ccc(-c2nc3c(c(N4CCOC[C@@H]4C)n2)C(C)S(=O)(=O)C3)cc1 (stereo partly drawn) [Example 38, 1-ethyl-3-(4-(5-methyl-4-((S)-3-methylmorpholino)-6,6-dioxido-5,7-dihydrothieno[3,4-d]pyrimidin-2-yl)phenyl)urea]",< 100 nM,158 nM,< 100 nM,
"CCCNC(=O)Nc1ccc(-c2nc3c(c(N4CCOC[C@@H]4C)n2)C(C)S(=O)(=O)C3)cc1 (stereo partly drawn) [Example 45, 1-(4-(5-methyl-4-((S)-3-methylmorpholino)-6,6-dioxido-5,7-dihydrothieno[3,4-d]pyrimidin-2-yl)phenyl)-3-propylurea]",< 100 nM,398 nM,< 100 nM,
"CNC(=O)Nc1ccc(-c2nc(N3CCOC[C@@H]3C)c3c(n2)C(C)(C)S(=O)(=O)C3C)cc1 (stereo partly drawn) [Example 77, 1-methyl-3-(4-(5,7,7-trimethyl-4-((S)-3-methylmorpholino)-6,6-dioxido-5,7-dihydrothieno[3,4-d]pyrimidin-2-yl)phenyl)urea]",< 100 nM,200 nM,< 100 nM,
"CC1c2c(nc(-c3ccc(NC(=O)NC4CC4)cc3)nc2N2CCOC[C@H]2C)CS1(=O)=O (stereo partly drawn) [Example 48, 1-cyclopropyl-3-(4-(5-methyl-4-((R)-3-methylmorpholino)-6,6-dioxido-5,7-dihydrothieno[3,4-d]pyrimidin-2-yl)phenyl)urea]",< 100 nM,79.4 nM,< 100 nM,
"CNC(=O)Nc1ccc(-c2nc(N3CCOC[C@@H]3C)c3c(n2)C(C)(C)S(=O)(=O)C3C)c(F)c1 (stereo partly drawn) [Example 78, 1-(3-fluoro-4-(5,7,7-trimethyl-4-((S)-3-methylmorpholino)-6,6-dioxido-5,7-dihydrothieno[3,4-d]pyrimidin-2-yl)phenyl)-3-methylurea]",< 100 nM,501 nM,< 100 nM,
"CC1c2c(nc(-c3ccc(NC(=O)NCC4CC4)cc3)nc2N2CCOC[C@@H]2C)CS1(=O)=O (stereo partly drawn) [Example 46, 1-(cyclopropylmethyl)-3-(4-(5-methyl-4-((S)-3-methylmorpholino)-6,6-dioxido-5,7-dihydrothieno[3,4-d]pyrimidin-2-yl)phenyl)urea]",< 100 nM,2000 nM,< 100 nM,
"CNC(=O)Nc1ccc(-c2nc(N3CCOC[C@@H]3C)c3c(n2)C(C)(C)S(=O)(=O)C3)cc1 [Example 57, (S)-1-(4-(7,7-dimethyl-4-(3-methylmorpholino)-6,6-dioxido-5,7-dihydrothieno[3,4-d]pyrimidin-2-yl)phenyl)-3-methylurea]",,251 nM,< 100 nM,> 10000 nM
"CCC1c2c(nc(-c3ccc(NC(=O)NC4CC4)cc3)nc2N2CCOC[C@@H]2C)CS1(=O)=O (stereo partly drawn) [Example 49, 1-cyclopropyl-3-(4-(5-ethyl-4-((S)-3-methylmorpholino)-6,6-dioxido-5,7-dihydrothieno[3,4-d]pyrimidin-2-yl)phenyl)urea]",< 100 nM,200 nM,< 100 nM,
"CCNC(=O)Nc1ccc(-c2nc(N3CCOC[C@@H]3CC)c3c(n2)C(C)(C)S(=O)(=O)C3)cc1 [Example 56, (S)-1-ethyl-3-(4-(4-(3-ethylmorpholino)-7,7-dimethyl-6,6-dioxido-5,7-dihydrothieno[3,4-d]pyrimidin-2-yl)phenyl)urea]",,316 nM,< 100 nM,> 10000 nM
"CCNC(=O)Nc1ccc(-c2nc(N3CCOCC3)c3c(n2)C(C)(C)S(=O)(=O)C3)cc1 [Example 76, 1-(4-(7,7-dimethyl-4-morpholino-6,6-dioxido-5,7-dihydrothieno[3,4-d]pyrimidin-2-yl)phenyl)-3-ethylurea]",< 100 nM,631 nM,< 100 nM,
